Results: patent publication US8034574B2, “Screening method for prokinetic agent” (Astellas Pharma Inc., priority 2006, dated 2011)

Legend:
[1] = target: T1, human TRPA1 (polypeptide of SEQ ID NO:2) (Homo sapiens, UniProt O75762, K186N/R3C/R58T); test: Intracellular calcium by FLIPR in CHO-K1 cells expressing human TRPA1 (activator screening); assay type: cell-based; details: CHO-K1 cells expressing human TRPA1; FLIPR, Fluo3-AM
T1 construct: expressed in transfected cells; host or cells: CHO-K1 cells, transient transfection of the pcDNA3.1(+) human TRPA1 vector
T1 sequence (O75762 whole entry R3C/R58T/K186N): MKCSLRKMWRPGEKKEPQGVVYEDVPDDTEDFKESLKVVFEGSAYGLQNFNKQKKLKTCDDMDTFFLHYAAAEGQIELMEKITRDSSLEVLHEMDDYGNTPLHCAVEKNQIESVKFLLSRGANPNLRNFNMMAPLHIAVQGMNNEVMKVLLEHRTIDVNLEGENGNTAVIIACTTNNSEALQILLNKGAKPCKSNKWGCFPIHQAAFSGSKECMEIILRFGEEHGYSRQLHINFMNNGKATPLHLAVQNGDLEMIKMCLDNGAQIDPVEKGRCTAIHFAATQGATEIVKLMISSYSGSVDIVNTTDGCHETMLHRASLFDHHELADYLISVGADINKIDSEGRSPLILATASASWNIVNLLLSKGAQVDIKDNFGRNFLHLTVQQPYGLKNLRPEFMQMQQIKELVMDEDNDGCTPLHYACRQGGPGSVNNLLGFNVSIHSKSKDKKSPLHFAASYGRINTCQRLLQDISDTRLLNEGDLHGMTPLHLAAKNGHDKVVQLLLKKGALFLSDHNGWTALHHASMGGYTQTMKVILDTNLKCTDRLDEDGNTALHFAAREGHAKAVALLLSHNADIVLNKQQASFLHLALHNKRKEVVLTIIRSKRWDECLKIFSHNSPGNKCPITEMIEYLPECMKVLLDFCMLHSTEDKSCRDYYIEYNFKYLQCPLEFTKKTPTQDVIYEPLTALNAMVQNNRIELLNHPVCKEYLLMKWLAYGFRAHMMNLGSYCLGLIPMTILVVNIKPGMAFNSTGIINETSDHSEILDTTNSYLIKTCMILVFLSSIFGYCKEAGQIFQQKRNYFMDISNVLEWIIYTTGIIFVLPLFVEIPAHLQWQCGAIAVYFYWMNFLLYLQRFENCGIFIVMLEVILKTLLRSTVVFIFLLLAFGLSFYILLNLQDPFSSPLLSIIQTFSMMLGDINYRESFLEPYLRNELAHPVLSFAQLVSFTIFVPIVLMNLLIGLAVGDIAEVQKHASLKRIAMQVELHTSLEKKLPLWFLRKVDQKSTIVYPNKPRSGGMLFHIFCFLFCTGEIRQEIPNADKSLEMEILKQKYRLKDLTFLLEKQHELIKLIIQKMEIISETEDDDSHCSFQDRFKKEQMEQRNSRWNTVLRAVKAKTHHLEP
Description: To detect the TRPA1 channel activity of a polypeptide consisting of the amino acid sequence shown by SEQ ID NO:2, the expression vector obtained in Example 1 above was transfected to animal cells, whereby the aforementioned protein was expressed.
Various test samples were added to CHO-K1 cells forced to is transiently express TRPA1 by the transfection operation of Example 2 above, and the resulting changes in intracellular calcium concentration were measured using FLIPR (Molecular Device).
To measure the changes in intracellular calcium concentration by FLIPR, the following pre-treatment was performed. First, an assay buffer for adding the fluorescent dye Fluo3-AM (DOJIN) to the cells, or for washing the cells just before performing the FLIPR assay, was prepared. To a solution prepared by adding 20 ml of 1M HEPES (pH 7.4) (Invitrogen) to 1000 ml of HBSS (Invitrogen) (hereinafter, HBSS/HEPES solution), 10 ml of a solution prepared by dissolving 710 mg of probenecid (Sigma) in 5 ml of 1N NaOH and then adding 5 ml of the HBSS/HEPES solution, was added and mixed, and this solution was used as the assay buffer. Next, 50 μg of Fluo3-AM was dissolved in 22 μl of DMSO (DOJIN), and an equal volume of 20% pluronic acid (Molecular Probes) was added and mixed, after which this mixture was added to 10.6 ml of the assay buffer supplemented with 105 μl of fetal bovine serum, whereby a fluorescent dye solution was prepared. […] After this pretreatment was performed, changes in intracellular calcium concentration after addition of the various test samples were measured with the FLIPR.
Compounds that activate a polypeptide consisting of the amino acid sequence shown by SEQ ID NO:2 (activators) were screened for. As an index of activation, calcium inflow in the cells was detected using a calcium-sensitive fluorescent reagent; specifically, the method described in Example 3 was used.

[2] = test system: CHO-K1 cells not expressing the polypeptide shown by SEQ ID NO:2; test: Intracellular calcium by FLIPR in negative control CHO-K1 cells; assay type: cell-based; details: CHO-K1 cells not expressing TRPA1
[3] = test system: RIN14B cells; test: Channel activity in RIN14B cells using calcium-sensitive fluorescent reagent (FLIPR); assay type: cell-based, rat; details: RIN14B cells, Fluo3-AM
Description: RIN14B cells (5×10^4 cells), wherein the expression of TRPA1 was confirmed in Example 10, were incubated in the presence of a calcium-sensitive fluorescent reagent (Fluo3-AM; DOJINDO) at 37° C. for 1 hour to thereby incorporate the calcium-sensitive fluorescent reagent in the cells, after which the cells were washed with physiological saline to remove the calcium-sensitive fluorescent reagent that had not been incorporated in the cells. To the cells obtained, physiological saline supplemented with allyl isothiocyanate, cinnamic aldehyde, or acrolein was added; the fluorescence emitted by the cells was measured over time. The above-described measurements were performed using an automated fluorescence detection apparatus (FLIPR; Molecular Device). […] Ruthenium Red was added concurrently and a measurement was performed to determine whether or not calcium inflow in the cells was be inhibited.

[4] = test system: guinea pig ileum; test: Isolated guinea pig gut constriction (Magnus, ileum)
Description: Guinea pigs (Hartley strain, male, weighing 300-400 g), under ether anesthesia, were exsanguinated to death by cutting the carotid artery. The ileum was extirpated, about 15-cm portions at both ends were removed, a section 1.5 cm long was cut out from the remaining portion, and incisions were made longitudinally parallelly in the gut to prepare a tabular specimen. This specimen was sandwiched with serrefine at both ends, and suspended with a thread in a Magnus chamber containing 10 ml of a 37° C. Krebs solution (118 mM NaCl, 4.7 mM KCl, 2.5 mM CaCl2, 1.2 mM MgSO4, 1.2 mM KH2PO4, 11 mM D-glucose, 20 mM NaHCO3) aerated with 95% O2-5% CO2 mixed gas. A 1-g load was applied to the specimen, buffers were exchanged at 15-minute intervals, and the specimen was allowed to stand for about 60 minutes to stabilize its tension. Changes in the tension in response to agonist stimulation were measured isometrically, and recorded on a recorder. Acetylcholine, 10^−5 M, was administered to induce contraction of the ileum specimen; after the contraction maximized, the bath was washed three times to purge out the acetylcholine. This operation was repeated at 10-minute intervals, and after the induced contraction stabilized two consecutive times, each test substance was administered. By comparing the contractile forces produced by acetylcholine and the test substance, the effect of the test substance was evaluated. One specimen was investigated only at one concentration of the test substance. […] From the results above, it was shown that the TRPA1 activator induced gut contraction.
The serotonin receptor antagonists used were pizotifen maleate (10 μM), a 5-HT1,2 receptor antagonist, ketanserin tartrate (0.1 μM), a 5-HT2 receptor antagonist, ramosetron hydrochloride (0.3 μM), a 5-HT3 receptor antagonist, and GR113808 (0.3 μM), a 5-HT4 receptor antagonist.
The inhibitory actions of various serotonin receptor antagonists on contraction upon stimulation with acrolein (300 μM) were investigated in the same manner. […] From the results above, it was shown that serotonin was released upon stimulation with acrolein to induce contraction via serotonin receptors such as 5-HT1 receptor and 5-HT3 receptor.

[5] = test system: mouse ileum loop water secretion; test: Mouse gut water secretion (ileum loop); assay type: in vivo; details: 6 hours; for water secretion from the gut: mouse ileum loop, 10, 100, 1,000 μg
Description: Mice (ddy, male, 35-42 g, SLC), fasted overnight, were anesthetized with pentobarbital (50 mg/kg i.p.) and laparotomized, and ileum tissue about 2 cm in the vicinity of the cecum was ligated with a thread at both ends to prepare an ileum loop. […] After the administration, the gut was returned to the original position, and the abdominal muscle and the skin were sutured. Six hours after the treatment, each mouse was killed by cervical dislocation, after which the ileum loop was extirpated, and the content was weighed.

[6] = test system: dog digestive tract movement; test: Dog digestive tract movement by strain gauge force transducer method

C=CCN=C=S [allyl isothiocyanate]
change in intracellular calcium concentration [1]: responded specifically (elevation of intracellular calcium concentration)
elevation of fluorescence intensity in negative control cells [2]: none of these compounds produced an elevation of fluorescence intensity
elevation of fluorescence intensity (calcium inflow) in RIN14B cells [3]: an elevation of fluorescence intensity was detected
EC50 ([4]; Cavia porcellus, read-out: EC50(μM) †): 129 µM
Action ([4]; Magnus (guinea pig ileum)): Contraction
water secretion accentuating action, 1,000 μg dose group ([5]; mouse ileum loop, 1,000 μg): significant water secretion accentuating action observed
water secretion from the gut [5]: dose-dependently accentuated water secretion from the gut
water secretion from the gut ([5]; listed as Allyl isothiocyanate): concentration-dependently accentuated water secretion compared to the vehicle control
induction of GMC ([6]; oral): induced GMC
time after administration to induction of colon GMC (Giant migrating contraction) ([6]; oral, 1, 10 mg/kg): ≤ 10 min
stomach movement ([6]; oral, just after administration): accentuated stomach movement just after administration
